One compound from publication PMC11576293, “New series of 4,6-diaryl pyrimidines: facile synthesis and antiproliferative activity as dual EGFR/VEGFR-2 inhibitors” (Frontiers in Chemistry, 2024) can be followed below.

A value given as a limit tells only on which side of the number the result lay.

The test system of the first experiment is HOP-62. Nature of the experiment: NCI-60 single-dose screen. Format: cell-based. As to conditions: Homo sapiens, single dose 10 µM, '-' = no inhibition, read-out: % Growth Inhibition. The method, boiled down:
(§1)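 Single concentration of 10 μM applied to every line of the 60-cell-line NCI panel. Testing performed by NCI DTP.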
As to `COc1ccc(-c2cc(-c3ccc(Cl)cc3)nc(SC(C)C)n2)cc1OC` [Compound 26, 4-(4-Chlorophenyl)-2-(isopropylthio)-6-(3,4-dimethoxyphenyl)pyrimidine], the inhibition at 10 µM was below 0%.

The next experiment deals with U251. In words: NCI-60 single-dose screen. Format: cell-based. As to conditions: Homo sapiens, U-251, single dose 10 µM, '-' = no inhibition, read-out: % Growth Inhibition. The method, boiled down:
as §1
For `COc1ccc(-c2cc(-c3ccc(Cl)cc3)nc(SC(C)C)n2)cc1OC` [Compound 26, 4-(4-Chlorophenyl)-2-(isopropylthio)-6-(3,4-dimethoxyphenyl)pyrimidine], the inhibition at 10 µM was below 0%.

The test system of another experiment is NCI-H23. In words: NCI-60 single-dose screen. Format: cell-based. As to conditions: Homo sapiens, single dose 10 µM, '-' = no inhibition, read-out: % Growth Inhibition. The method in brief: as §1
In the case of `COc1ccc(-c2cc(-c3ccc(Cl)cc3)nc(SC(C)C)n2)cc1OC` [Compound 26, 4-(4-Chlorophenyl)-2-(isopropylthio)-6-(3,4-dimethoxyphenyl)pyrimidine], the inhibition at 10 µM is below 0%.

For a further experiment, the system named is K-562. Nature of the experiment: NCI-60 single-dose screen. In kind it is cell-based. As to conditions: Homo sapiens, K562, single dose 10 µM, '-' = no inhibition, read-out: % Growth Inhibition. The method in brief: as §1
On to `COc1ccc(-c2cc(-c3ccc(Cl)cc3)nc(SC(C)C)n2)cc1OC` [Compound 26, 4-(4-Chlorophenyl)-2-(isopropylthio)-6-(3,4-dimethoxyphenyl)pyrimidine], for which the inhibition at 10 µM came to 6.67%.

A further experiment relates to MDA-MB-468. In words: NCI-60 single-dose screen. In kind it is cell-based. As to conditions: Homo sapiens, single dose 10 µM, '-' = no inhibition, read-out: % Growth Inhibition. The method in brief: as §1
For the compound `COc1ccc(-c2cc(-c3ccc(Cl)cc3)nc(SC(C)C)n2)cc1OC` [Compound 26, 4-(4-Chlorophenyl)-2-(isopropylthio)-6-(3,4-dimethoxyphenyl)pyrimidine], the inhibition at 10 µM amounted to 7.33%.

A further experiment relates to IGROV1. Nature of the experiment: NCI-60 single-dose screen. As to conditions: Homo sapiens, IGROV-1, single dose 10 µM, '-' = no inhibition, read-out: % Growth Inhibition. In kind it is cell-based. The method in brief: as §1
In the case of `COc1ccc(-c2cc(-c3ccc(Cl)cc3)nc(SC(C)C)n2)cc1OC` [Compound 26, 4-(4-Chlorophenyl)-2-(isopropylthio)-6-(3,4-dimethoxyphenyl)pyrimidine], the inhibition at 10 µM was below 0%.

For a further experiment, the system named is MCF7. Nature of the experiment: NCI-60 single-dose screen. Format: cell-based. As to conditions: Homo sapiens, single dose 10 µM, '-' = no inhibition, read-out: % Growth Inhibition. The method, boiled down: as §1
For `COc1ccc(-c2cc(-c3ccc(Cl)cc3)nc(SC(C)C)n2)cc1OC` [Compound 26, 4-(4-Chlorophenyl)-2-(isopropylthio)-6-(3,4-dimethoxyphenyl)pyrimidine], the inhibition at 10 µM is 18.1%.

In the next experiment the test system is RPMI-8226. In words: NCI-60 single-dose screen. Format: cell-based. As to conditions: Homo sapiens, single dose 10 µM, '-' = no inhibition, read-out: % Growth Inhibition. The method in brief:
as §1
For the compound `COc1ccc(-c2cc(-c3ccc(Cl)cc3)nc(SC(C)C)n2)cc1OC` [Compound 26, 4-(4-Chlorophenyl)-2-(isopropylthio)-6-(3,4-dimethoxyphenyl)pyrimidine], the inhibition at 10 µM is 0.53%.

In a further experiment the test system is M14. In words: NCI-60 single-dose screen. Format: cell-based. As to conditions: Homo sapiens, single dose 10 µM, '-' = no inhibition, read-out: % Growth Inhibition. The method in brief: as §1
In the case of `COc1ccc(-c2cc(-c3ccc(Cl)cc3)nc(SC(C)C)n2)cc1OC` [Compound 26, 4-(4-Chlorophenyl)-2-(isopropylthio)-6-(3,4-dimethoxyphenyl)pyrimidine], the inhibition at 10 µM is below 0%.

Another experiment concerns MDA-MB231/ATCC. In words: NCI-60 single-dose screen. In kind it is cell-based. As to conditions: Homo sapiens, MDA-MB-231, single dose 10 µM, '-' = no inhibition, read-out: % Growth Inhibition. The method in brief: as §1
As for `COc1ccc(-c2cc(-c3ccc(Cl)cc3)nc(SC(C)C)n2)cc1OC` [Compound 26, 4-(4-Chlorophenyl)-2-(isopropylthio)-6-(3,4-dimethoxyphenyl)pyrimidine], the inhibition at 10 µM amounted to 4.5%.

Another experiment concerns OVCAR-8. In words: NCI-60 single-dose screen. In kind it is cell-based. As to conditions: Homo sapiens, single dose 10 µM, '-' = no inhibition, read-out: % Growth Inhibition. The method in brief:
as §1
Regarding `COc1ccc(-c2cc(-c3ccc(Cl)cc3)nc(SC(C)C)n2)cc1OC` [Compound 26, 4-(4-Chlorophenyl)-2-(isopropylthio)-6-(3,4-dimethoxyphenyl)pyrimidine], the inhibition at 10 µM amounted to 4.2%.

Another experiment concerns CCRF-CEM. In words: NCI-60 single-dose screen. Format: cell-based. As to conditions: Homo sapiens, single dose 10 µM, '-' = no inhibition, read-out: % Growth Inhibition. The method, boiled down: as §1
With `COc1ccc(-c2cc(-c3ccc(Cl)cc3)nc(SC(C)C)n2)cc1OC` [Compound 26, 4-(4-Chlorophenyl)-2-(isopropylthio)-6-(3,4-dimethoxyphenyl)pyrimidine], the inhibition at 10 µM came to 1.08%.

The subject of another experiment is SK-MEL-5. In words: NCI-60 single-dose screen. As to conditions: Homo sapiens, single dose 10 µM, '-' = no inhibition, read-out: % Growth Inhibition. In kind it is cell-based. The method, boiled down: as §1
For `COc1ccc(-c2cc(-c3ccc(Cl)cc3)nc(SC(C)C)n2)cc1OC` [Compound 26, 4-(4-Chlorophenyl)-2-(isopropylthio)-6-(3,4-dimethoxyphenyl)pyrimidine], the inhibition at 10 µM was below 0%.

The next experiment has as its system OVCAR-4. In words: NCI-60 single-dose screen. In kind it is cell-based. As to conditions: Homo sapiens, single dose 10 µM, '-' = no inhibition, read-out: % Growth Inhibition. The method in brief:
as §1
With `COc1ccc(-c2cc(-c3ccc(Cl)cc3)nc(SC(C)C)n2)cc1OC` [Compound 26, 4-(4-Chlorophenyl)-2-(isopropylthio)-6-(3,4-dimethoxyphenyl)pyrimidine], the inhibition at 10 µM was below 0%.

The subject of a further experiment is RXF 393. In words: NCI-60 single-dose screen. As to conditions: Homo sapiens, single dose 10 µM, '-' = no inhibition, read-out: % Growth Inhibition. Format: cell-based. The method, boiled down: as §1
In the case of `COc1ccc(-c2cc(-c3ccc(Cl)cc3)nc(SC(C)C)n2)cc1OC` [Compound 26, 4-(4-Chlorophenyl)-2-(isopropylthio)-6-(3,4-dimethoxyphenyl)pyrimidine], the inhibition at 10 µM is below 0%.

The next experiment relates to A549/ATCC. In words: NCI-60 single-dose screen. As to conditions: Homo sapiens, single dose 10 µM, '-' = no inhibition, read-out: % Growth Inhibition. In kind it is cell-based. The method in brief:
as §1
Turning to `COc1ccc(-c2cc(-c3ccc(Cl)cc3)nc(SC(C)C)n2)cc1OC` [Compound 26, 4-(4-Chlorophenyl)-2-(isopropylthio)-6-(3,4-dimethoxyphenyl)pyrimidine], the inhibition at 10 µM came out at 0.02%.

Another experiment has as its system NCI-H522. In words: NCI-60 single-dose screen. In kind it is cell-based. As to conditions: Homo sapiens, single dose 10 µM, '-' = no inhibition, read-out: % Growth Inhibition. The method, boiled down: as §1
On to `COc1ccc(-c2cc(-c3ccc(Cl)cc3)nc(SC(C)C)n2)cc1OC` [Compound 26, 4-(4-Chlorophenyl)-2-(isopropylthio)-6-(3,4-dimethoxyphenyl)pyrimidine], for which the inhibition at 10 µM was found to be 9.05%.

The next experiment has as its system UACC-257. Nature of the experiment: NCI-60 single-dose screen. As to conditions: Homo sapiens, single dose 10 µM, '-' = no inhibition, read-out: % Growth Inhibition. Format: cell-based. The method, boiled down: as §1
Consider `COc1ccc(-c2cc(-c3ccc(Cl)cc3)nc(SC(C)C)n2)cc1OC` [Compound 26, 4-(4-Chlorophenyl)-2-(isopropylthio)-6-(3,4-dimethoxyphenyl)pyrimidine], for which the inhibition at 10 µM is 0.69%.

A further experiment concerns UACC-62. In words: NCI-60 single-dose screen. In kind it is cell-based. As to conditions: Homo sapiens, single dose 10 µM, '-' = no inhibition, read-out: % Growth Inhibition. The method, boiled down: as §1
Consider `COc1ccc(-c2cc(-c3ccc(Cl)cc3)nc(SC(C)C)n2)cc1OC` [Compound 26, 4-(4-Chlorophenyl)-2-(isopropylthio)-6-(3,4-dimethoxyphenyl)pyrimidine], for which the inhibition at 10 µM turned out to be 17.4%.

Another experiment relates to UO-31. In words: NCI-60 single-dose screen. In kind it is cell-based. As to conditions: Homo sapiens, single dose 10 µM, '-' = no inhibition, read-out: % Growth Inhibition. The method, boiled down:
as §1
For the compound `COc1ccc(-c2cc(-c3ccc(Cl)cc3)nc(SC(C)C)n2)cc1OC` [Compound 26, 4-(4-Chlorophenyl)-2-(isopropylthio)-6-(3,4-dimethoxyphenyl)pyrimidine], the inhibition at 10 µM was determined as 15.2%.

Another experiment deals with HT29. Nature of the experiment: NCI-60 single-dose screen. In kind it is cell-based. As to conditions: Homo sapiens, HT-29, single dose 10 µM, '-' = no inhibition, read-out: % Growth Inhibition. The method, boiled down:
as §1
Consider `COc1ccc(-c2cc(-c3ccc(Cl)cc3)nc(SC(C)C)n2)cc1OC` [Compound 26, 4-(4-Chlorophenyl)-2-(isopropylthio)-6-(3,4-dimethoxyphenyl)pyrimidine], for which the inhibition at 10 µM stood at 13.1%.

The subject of a further experiment is PC-3. In words: NCI-60 single-dose screen. Format: cell-based. As to conditions: Homo sapiens, single dose 10 µM, '-' = no inhibition, read-out: % Growth Inhibition. The method, boiled down: as §1
Consider `COc1ccc(-c2cc(-c3ccc(Cl)cc3)nc(SC(C)C)n2)cc1OC` [Compound 26, 4-(4-Chlorophenyl)-2-(isopropylthio)-6-(3,4-dimethoxyphenyl)pyrimidine], for which the inhibition at 10 µM was below 0%.

In a further experiment the test system is HCT-15. Nature of the experiment: NCI-60 single-dose screen. In kind it is cell-based. As to conditions: Homo sapiens, single dose 10 µM, '-' = no inhibition, read-out: % Growth Inhibition. The method in brief:
as §1
For the compound `COc1ccc(-c2cc(-c3ccc(Cl)cc3)nc(SC(C)C)n2)cc1OC` [Compound 26, 4-(4-Chlorophenyl)-2-(isopropylthio)-6-(3,4-dimethoxyphenyl)pyrimidine], the inhibition at 10 µM was 4.73%.
